Assay results published in publication PMC8194371 (Journal of medicinal chemistry, 2021).
pIC50: −log10 of the molar value. In brackets after ≈: the same amount, converted by molar mass. Several values for one entry are separate records, joined by “and”; a condition that tells them apart may be missing. Equal values may be shown once. Read-outs that look alike come from different tables or passages of the source.

Assays:
[1] = tested on: Mtb strain CDC1551 dop::MycoMarT7 expressing pupGGE; experiment: Accumulation of pupylated proteins; format: cell-based, Mycobacterium tuberculosis
[2] = target: Mtb20SOG (Mycobacterium tuberculosis, UniProt P9WHT9); experiment: Mtb20SOG proteasome inhibition, suc-LLVY-AMC hydrolysis; format: biochemical; conditions: Mtb20S IC50, text values
Sequence of Mtb20SOG (P9WHT9 58-291): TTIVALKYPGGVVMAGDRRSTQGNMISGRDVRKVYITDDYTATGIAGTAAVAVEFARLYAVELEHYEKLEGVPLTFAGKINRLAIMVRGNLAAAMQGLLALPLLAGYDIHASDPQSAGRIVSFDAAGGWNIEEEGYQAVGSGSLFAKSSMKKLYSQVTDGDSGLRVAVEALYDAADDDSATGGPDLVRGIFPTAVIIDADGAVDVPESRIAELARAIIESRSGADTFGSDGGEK

[3] = target: β5c of the human c-20S (Homo sapiens, UniProt P28074); experiment: human constitutive proteasome β5c inhibition, suc-LLVY-AMC; format: biochemical; conditions: for SIapp IC50–β5c / IC50–Mtb20S: apparent selectivity index, rounded to three or fewer significant figures
[4] = tested on: HepG2 cells; experiment: Viability of HepG2 cells; conditions: at 30 μM
[5] = tested on: Mtb strain MHD1441 (H37Rv WT + pSCK1); format: cell-based, Mycobacterium tuberculosis; conditions: 0.1-33 μM, day 4
[6] = target: β5i of the human i-20S (Homo sapiens, UniProt P28062); format: biochemical
[7] = Kinetic solubility; format: physicochemical; conditions: PBS buffer

CC(C)C[C@H](NC(=O)[C@H](CCc1ccccc1)NC(=O)CN1CCOCC1)C(=O)N[C@@H](Cc1ccccc1)C(=O)N[C@@H](CC(C)C)C(=O)[C@@]1(C)CO1 [Carfilzomib, reference compound]
accumulation of pupylated proteins [1]: led to accumulation of pupylated proteins

O=C1CCc2cccc(c2)OCCCC[C@@H](C(=O)NCc2ccccc2F)NC(=O)[C@H](CC(=O)N2CCC[C@@H]2C2CC2)N1 [Macrocycle 11]
pIC50 [2]: 8.19

O=C1CCc2cccc(c2)Oc2ccc(cc2)C[C@@H](C(=O)NCc2ccccc2F)NC(=O)[C@H](CC(=O)N2CCCC2)N1 [Macrocycle 5]
SIapp IC50–β5c / IC50–Mtb20S [3]: >500

O=C1CCc2cccc(c2)Oc2ccc(cc2)C[C@@H](C(=O)NCc2ccccc2F)NC(=O)[C@H](CC(=O)N2CCC[C@@H]2c2ccccc2)N1 [Macrocycle 6]
accumulation of pupylated proteins ([1]; macrocycle 6 at 1, 3, or 10 μM for 48 h, CFZ at 50 μM): dose-dependently promoted the accumulation of pupylated proteins | cytotoxicity toward HepG2 [4]: no appreciable cytotoxicity | Pup-GFP accumulation (RFU normalized by OD) [5]: dose-dependent increase of RFU | SIapp IC50–β5i / IC50–Mtb20S [6]: >13,600 | selectivity for Mtb20S over human i-20S [6]: > 13,600 fold and > 10,000 fold | selectivity for Mtb20S over human c-20S [3]: > 13,600 fold and > 10,000 fold | SIapp IC50–β5c / IC50–Mtb20S [3]: >13,600

O=C1CCCCCCCCCC[C@@H](C(=O)NCc2cccc3ccccc23)NC(=O)[C@H](CC(=O)N2CCCC2)N1 [Macrocycle 2]
SIapp IC50–β5i / IC50–Mtb20S [6]: >674 | SIapp IC50–β5c / IC50–Mtb20S [3]: >674

O=C1CCCCCCCCOC[C@@H](C(=O)NCc2cccc3ccccc23)NC(=O)[C@H](CC(=O)N2CCCC2)N1 [Macrocycle 4]
SIapp IC50–β5i / IC50–Mtb20S [6]: >984 | SIapp IC50–β5c / IC50–Mtb20S [3]: >984

O=C1CCCCCCCCC[C@@H](C(=O)NCc2cccc3ccccc23)NC(=O)[C@H](CC(=O)N2CCCC2)N1 [Macrocycle 3]
SIapp IC50–β5i / IC50–Mtb20S [6]: >141 | SIapp IC50–β5c / IC50–Mtb20S [3]: >141

O=C1CCCCCCCCOC[C@@H](C(=O)NCc2ccccc2F)NC(=O)[C@H](CC(=O)N2CCC[C@@H]2c2ccccc2)N1 [Macrocycle 9]
solubility at 24 h ([7]; pH 6.8): 1.4 µg/mL (≈ 2.35 µM) | solubility at 24 h ([7]; pH 6.8, aqueous buffer, kinetic from dmso stock): < 1.4 µg/mL | SIapp IC50–β5i / IC50–Mtb20S [6]: >14,000 | SIapp IC50–β5c / IC50–Mtb20S [3]: >14,000

O=C1CCc2cccc(c2)OCCCC[C@@H](C(=O)NCc2ccccc2F)NC(=O)[C@H](CC(=O)N2CCC[C@@H]2c2ccccc2)N1 [Macrocycle 10]
cytotoxicity toward HepG2 [4]: no appreciable cytotoxicity | Pup-GFP accumulation (RFU normalized by OD) [5]: dose-dependent increase of RFU | SIapp IC50–β5i / IC50–Mtb20S [6]: >14,400 | selectivity for Mtb20S over human i-20S [6]: > 14,400 fold | selectivity for Mtb20S over human c-20S [3]: > 14,400 fold | SIapp IC50–β5c / IC50–Mtb20S [3]: >14,400
